The source of these data is PMC5444695, “CM363, a novel naphthoquinone derivative which acts as multikinase modulator and overcomes imatinib resistance in chronic myelogenous leukemia” (Oncotarget, 2016).

SMILES strings stand for the structures.

One series deals with MOLM.13 cells. Put plainly: MTT cell viability assay, MOLM.13 cells. The series is classed as cell-based. As to conditions: Homo sapiens, MOLM.13, 48 h, read-out: IC50 (μM) Mean ± SD. The method, then:
(§1) All cell lines were purchased from the American Type Culture Collection (ATCC). The cell lines were growth at 37°C under 5% CO2 under humidified atmosphere. The cell lines K562 (derived from patients during the blast crisis phase of CML and IM sensitive), K562-R (IM resistance human CML), KmycBT15I (KBTI; IM resistant human CML, expressing the Bcr-Abl […] mutant), HEL (human erythroleukemia), HL60 (human acute myeloid leukemia), MOLM-13 (human acute myeloid leukemia), MV4.11 (human acute monocytic leukemia), HCT-15 (human colorectal adenocarcinoma), PC3 (human prostate cancer), MCF7 (human breast cancer), NCTC3749 (mouse lymphoma) as well as the MRC.5 cells (non-malignant human lung fibroblasts) were maintained in RPMI-1640 medium. The cell lines L1210 (mouse lymphocytic leukemia cells), Raw (mouse macrophage), HeLa (human epithelial cervix cancer), U-2 OS (human osteosarcoma), MG63 (human osteosarcoma) and T47D (human breast cancer adenocarcinoma) were maintained in DMEM. HEK293 cells stably expressing the GH receptor (HEKGHR) were maintained in DMEM-F12 medium. […]
(§2) Cells were seeded in 96-well plates (BD Falcon, France) at exponential growth density (5000–20000 cells/well) and treated with vehicle (0.05% DMSO) or compound (0.01 to 10 μM) for 48–72 h. […] Optical density was measured at 595 nm with the iMark Microplate Reader (BioRad, CA, USA).

The test system of another series is HEL cells. The series is described as follows: MTT cell viability assay, HEL cells. The series is classed as cell-based. The conditions noted are these: Homo sapiens, 48 h, read-out: IC50 (μM) Mean ± SD. How it is done:
as §1, §2
(Tetrazolium assays rely on reduction of a dye to a coloured formazan, in cell work by metabolically active cells.)

Another series relates to T47D cells. The series is described as follows: MTT cell viability assay, T47D cells. The series is classed as cell-based. As to conditions: Homo sapiens, 48 h, read-out: IC50 (μM) Mean ± SD. How it is done:
as §1, §2

Another series relates to PC3 cells. The series is described as follows: MTT cell viability assay, PC3 cells. Type of series: cell-based. As to conditions: Homo sapiens, PC-3, PC3, 48 h, read-out: IC50 (μM) Mean ± SD. How it is done: as §1, §2
A further series deals with SKBR3 cells. Put plainly: MTT cell viability assay, SKBR3 cells. The series is classed as cell-based. The conditions noted are these: Homo sapiens, SK-BR-3, SKBR3, 48 h, read-out: IC50 (μM) Mean ± SD.
A further series deals with U-2 OS cells. Put plainly: MTT cell viability assay, U-2 OS cells. The series is classed as cell-based. The conditions noted are these: Homo sapiens, U2OS, 48 h, read-out: IC50 (μM) Mean ± SD. The method, then:
as §1, §2

The subject of a further series is MRC.5 cells. Put plainly: MTT cell viability assay, MRC.5 cells. The conditions noted are these: Homo sapiens, MRC5, MRC.5 non-malignant lung fibroblasts, 48 h, read-out: IC50 (μM) Mean ± SD. Type of series: cell-based. The method, then:
as §1, §2

The test system of series [1] is IM resistant K562 cells (K562-R). Put plainly: Live-cell imaging (IncuCyte HD) of proliferation, IM resistant K562 cells. Type of series: cell-based. As to conditions: Homo sapiens, 96 h, 4-day period, area under curve, read-out: IC50AUC, cytostatic effect on cell growth. How it is done: Kinetic measurements of cell proliferation and cytotoxicity were carried out by using the IncuCyte^TM HD real time imaging system (Essen BioScience, Hertfordshire, United Kingdom). After seeding in a polylysine-coated 96 well-plates, K562 cells were treated with different concentrations of compound. This IncuCyte™ microscope permits the acquisition of automated phase contrast images. Individual images are processed by an imbedded contrast-based confluence algorithm, which compute monolayer confluence for each image and at each time point. Multiple images are collected per well and averaged to provide a representative statistical measure of confluence.

Series [2] in a line: Body weight of xenografted mice. As to conditions: CM363 10 mg/kg i.p., 25 days. The series is classed as in vivo. The method, then: Six weeks old female athymic mice (NOD-SCID), were purchased from Charles River River (Barcelona, Spain), and were housed in a specifically designed pathogen-free isolation facility as reported previously. The mice were subcutaneously inoculated into the right flank with 2.5 × l0^6 K562 cells in 100 μL of RPMI-1640 medium and 100 μL of Matrigel. When tumors became palpable, mice were randomized into three groups (n = 8 per group); the control group (receiving vehicle alone- DMSO: PEG-400: sterile water at 5:25:70 (w/v)), the group receiving CM363 10 mg/Kg or the group receiving the positive control IM 40 mg/kg. The vehicle and CM363 treatments were administered via intraperitoneal injection (i.p.) every day except Saturday and Sunday. While IM was administered orally using the same schedule. The study was conducted over a 25 days period. Caliper measurements of the tumor diameters were performed twice per week, and the tumor volume was estimated as the volume of an ellipse using the following formula: V = 4/3n × (a/2) × (b/2)^2, where a and b correspond to the longest and shortest diameter, respectively. Mice were sacrificed when their tumor diameters reached 2 cm, or when they became moribund. Differences in tumor volumes between control and treated group were evaluated using the Mann-Whitney test.

The test system of a further series is KBTI cells. The series is described as follows: Viability of IM-resistant KBTI cells. As to conditions: IM-resistant KBTI human cells, data not shown. Type of series: cell-based. The method, then:
as §1, §2

For a further series, the system named is pYStat5. Put plainly: GM-CSF-induced pYStat5 in primary mouse macrophages. Type of series: cell-based. As to conditions: 3 μM CM363 for 0.5 h, data not shown.
In a further series the test system is Stat5 response element. The series is described as follows: Stat5 luciferase reporter gene assay in HEKGHR cells. The series is classed as cell-based. The conditions noted are these: 1 h pretreatment then GH 7 h. The method, then:
The HEKGHR cell line was used to determine the effects of compounds on GH-regulated Stat5 transcriptional activity. HEKGHR cells were transfected with pSPI-GLE1-Luc (1 μg) overnight using Metafectene Pro® (Biontex, Germany). The β-galactosidase expression plasmid (0.05 μg) (Thermo Scientific, Illinois, USA) was used for controlling transfection efficiency. The stable reporter cell line HeLa/Stat3-luc (Panomics, Fremont, USA), was used to determine the effects of compounds on oncostatin M-regulated Stat3 transcriptional activity. Cells were seeded in a 6-well culture plate (Nunc, Denmark) and they were serum deprived (0.5% FBS) for 16 h. Then, cells were treated with vehicle (0.05% DMSO) or compound (0.1 to 10 μM) during 1 h before rhGH (50 nM) or oncostatin M (50 ng/ml) were added for 7 h for induction of Stat5- or Stat3-dependent transcriptional activities, respectively. Cells were lysed in Passive Lysis Buffer and luciferase activity was determined by the Luciferase Assay System (Thermo Scientific, Illinois, USA). Luciferase activity was measured using the microplate reader Fluoroskan Ascent FL (Labsystems). Results are expressed as relative luciferase units (RLU) per mg of protein content and β-galactosidase activity and normalized to those obtained for vehicle-treated control cells.
In general terms: In a reporter assay the amount or activity of a reporter protein is the signal.

In another series the test system is Stat3 response element. Put plainly: Stat3 luciferase reporter gene assay in HeLa/Stat3-luc cells. The series is classed as cell-based. The conditions noted are these: 1 h pretreatment then IL6 7 h.

Consider `N#Cc1ccc(C2C3=C(CCCC3=O)OC3=C2C(=O)c2ccccc2C3=O)cc1` (stereo not shown) [CM363, 4-(1,6,11-trioxo-2,3,4,6,11,12-hexahydro-1H-benzo[b]xanthen-12-yl)benzonitrile], for which the IC50 in the series on MOLM.13 cells turned out to be 0.7 ± 1.1 µM; in the series on HEL cells it was 1.3 ± 0.3 µM; in the series with T47D cells, 1.3 ± 1.2 µM; with PC3 cells, 1.5 ± 1 µM; in the series with SKBR3 cells it was 2.6 ± 0.8 µM; in the series with U-2 OS cells, 4.3 ± 1.2 µM. Further, the IC50 with MRC.5 cells is 3.5 µM; in series [1], 500 ± 100 nM. Moreover, in series [2], the body weight result was “no significant body weight reduction”. For the same compound, in the series with KBTI cells, the “sensitivity of KBTI cells” value is “partial resistance”. Also, the “inhibition of GM-CSF-induced (10 min) pYStat5” value in the series with pYStat5 is on record as “complete inhibition”. In addition, the “Stat5-dependent reporter gene (luciferase) activity” value in the series on Stat5 response element is reported as “inhibit”. Besides, the “Stat3-dependent reporter gene (luciferase) activity” value in the series with Stat3 response element was “inhibit”.
